The values below come from patent US5279956A, “Activated protein C polypeptides and anti-peptide antibodies, diagnostic methods and systems for inhibiting activated protein C” (The Scripps Research Institute, priority 1991, dated 1994).

No end group written: not given here.

The target in the first assay is T1, APC (Homo sapiens, UniProt P04070).
T1 construct: begins at amino acid residue position 158 and ends at 419; The light chain is 155 amino acid residues in length; tissue Factor IX concentrate from Immuno AG, Vienna; thrombin from Enzyme Research Laboratories
T1 sequence (P04070 212-461): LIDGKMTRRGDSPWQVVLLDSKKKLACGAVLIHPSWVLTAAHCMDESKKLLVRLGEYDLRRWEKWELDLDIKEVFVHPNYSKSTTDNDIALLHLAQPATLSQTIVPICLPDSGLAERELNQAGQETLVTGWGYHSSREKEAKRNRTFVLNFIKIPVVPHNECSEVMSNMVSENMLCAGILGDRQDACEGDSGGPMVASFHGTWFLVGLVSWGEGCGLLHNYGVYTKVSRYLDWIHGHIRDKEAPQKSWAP
T1 sequence (P04070 43-197): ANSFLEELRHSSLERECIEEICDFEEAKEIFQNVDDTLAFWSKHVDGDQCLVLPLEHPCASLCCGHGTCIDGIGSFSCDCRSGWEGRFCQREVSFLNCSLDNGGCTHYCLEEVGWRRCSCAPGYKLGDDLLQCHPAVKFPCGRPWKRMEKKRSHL
Briefly: APC anticoagulant activity, APTT and Xa-1-stage coagulation assays (mean or both). In kind it is biochemical. Particulars: 500 μM peptide; mean of APTT and Xa-1-stage assays; 0 = no observable effect ± 10%. Here is the method:
(§1) The effect of the synthetic peptides on APC anticoagulant activity were determined using the APTT assay in the presence of either normal citrate anticoagulated plasma (NHP) or protein S depleted plasma (PSDP). The assays were performed essentially as described. See Marlar et al., Blood, 59:1067-1072 […]; Suzuki et al., J. Biol. Chem., 258:163-168 (1983); Gruber et al., Blood, 73:639-642 (1989); Ohlin et al., Biochem., 29:644-651 (1990). NHP was purchased from George King Bio-Medical, Inc. (Overland Park, Kans.). PSDP was prepared from a normal human citrate-anticoagulated plasma pool from ten healthy donors. Protein S was immunodepleted from the NHP by immunoaffinity chromatography of NHP over an anti-protein S antibody column to form PSDP. The anti-protein S antibody column was prepared by coupling 100 mg of a monoclonal, high-affinity, calcium-independent anti-PS antibody, designated S7, to 30 ml of CNBr-activated Sepharose 4B (Pharmacia) as described in Example 2c1).
For the APTT assay, APC was prepared as described in Example 2c2). […] The concentration of the APC used in the assay was initially optimized with respect to the sensitivity of the assay towards APC-induced prolongation of clotting time compared to clotting time without APC.
(§2) Once the optimal concentration of APC was determined, peptides from Table 2 were then separately admixed for a final concentration of 500 μM with 10 nM APC in 100 μl of TBS-BSA at pH 7.4 to form peptide-APC admixtures. The resulting admixtures were maintained for seven minutes at 37° C. Separate aliquots of peptides maintained under the same conditions in the absence of APC served as controls for the inhibitory effect of synthetic peptides on APC anticoagulant activity. After the maintenance period, 100 μl of NHP and 100 μl APTT-reagent Thrombosil (Ortho Diagnostics, Raritan, N.J.) were admixed into each peptide admixture and maintained for 200 seconds at 37° C. to form a pre-coagulation admixture. In some experiments, PSDP was used in the place of NHP to determine the effect of Protein S on the assay system. Coagulation was then initiated by the admixture of 100 μl of 30 mM CaCl2 in TBS prewarmed to 37° C. to each of the pre-coagulation admixtures. The time for clot formation was measured by an Electra 700 Automatic Coagulation Timer (Medical Laboratory Automation, Inc., Mount Vernon, N.Y.). Each peptide's effect was determined in duplicate.
The synthetic peptides listed in Table 4 are presented in the same order as listed in Table 2, i.e., are reproduced from Table 2. […] For peptides at a concentration of 500 μM that inhibited at least 50% of APC anticoagulant activity, analysis of dose-response was subsequently conducted. The column in Table 4 labeled "Inhibition of APC" represents the inhibition of APC anticoagulant activity measured with 500 μM peptide.
For testing the inhibition of the synthetic peptides on APC activity described above, Xa-1-stage coagulation assays were also performed as described. See Seegers et al., Thrombosis Res., 13:233-243 (1978); Marlar et al., supra; and Walker et al., J. Biol. Chem. 265:1484-1489 (1990).
As to DESKKLLVRLGEYDL [peptide-(214-230)], the “Inhibition of APC (%)” value is on record as 0%.

As to “DTEDQEDQVDPRLID-NH2 [peptide-(158-172), DTEDQEDQVDPRLID]”, 500 µM produced 0% inhibition.

In the case of “GHIRDKEAPQKSWAP-NH2 [peptide-(405-419), GHIRDKEAPQKSWAP]”, testing at 500 µM gave an inhibition of 0%.

For the substance “DIKEVFVHPNYSKST-NH2 [(239-253), DIKEVFVHPNYSKST]”, the inhibition (commonly the drop in the measured response relative to a control, in per cent) at 500 µM came out at 20%.

“LDSKKKLASGAVLIH-NH2 [peptide-(188-202), LDSKKKLA -SGAVLIH]”: the inhibition at 500 µM worked out at 0%.

Substance “AGILGDRQDA-NH2 [peptide-(346-355), AGILGDRQDA]” gave an inhibition at 500 µM of 0%.

On to “PATLSQTIVPICLP-NH2 [peptide-(266-279), PATLSQTIVPICLP]”, for which the inhibition at 500 µM turned out to be 0%.

With “LIDGKMTRRGDSPWQ-NH2 [peptide-(170-184), LIDGKMTRRGDSPWQ]”, the inhibition at 500 µM was found to be 0%.

Regarding “LLHLAQPATLSQTIV-NH2 [peptide-(260-274), LLHLAQPATLSQTIV]”, at 500 µM the inhibition was 0%.

“HSSREKEAKRNRTFV-NH2 [peptide-(303-317), HSSREKEAKRNRTFV]” had an inhibition at 500 µM of 0%.

“IVPISLPDSGLAERE-NH2 [peptide-(273-287), IVPI -SLPDSGLAERE]”: the inhibition at 500 µM worked out at 0%.

“DRQDASEGDSGGPMV-NH2 [peptide-(351-365), DRQDA -SEGDSGGPMV]” returned an inhibition at 500 µM of 0%.

“PATLSQTIVPIGLPD-NH2 [peptide-(266-280) SEQ ID NO 8, PATLSQTIVPI -- GLPD]” had an inhibition at 500 µM of 0%.

“ELDLDIKEVFVHPNY-NH2 [peptide-(235-249), ELDLDIKEVFVHPNY]” returned an inhibition at 500 µM of 0%.

In the case of “TRRGDSPWQVVLLDS-NH2 [(176-190), TRRGDSPWQVVLLDS]”, the inhibition at 500 µM came out at 25%.

“LPDSGLAERELNQAG-NH2 [peptide-(278-292), LPDSGLAERELNQAG]” yielded an inhibition at 500 µM of 0%.

On to “RRWEKWELDLDIKEV-NH2 [peptide-(229-243), RRWEKWELDLDIKEV]”, for which the inhibition at 500 µM worked out at 0%.

Turning to “VLTAAHCMDESKKL-NH2 [peptide-(206-219), VLTAAHCMDESKKL]”, the inhibition at 500 µM is 0%.

In the case of GTWFLVLVSWGEGC [peptide-(370-384)], the “Inhibition of APC (%)” value is 0%.

“QDACEGDSGGPMVA-NH2 [peptide-(353-366), QDACEGDSGGPMVA]” registered an inhibition at 500 µM of 0%.

“HIWDLYRSVKTYVGY-NH2 [peptide-(404-390), HIWDLYRSVKTYVGY]” gave an inhibition at 500 µM of 0%.

“PATLSQTIVPISLPD-NH2 [peptide-(266-280) SEQ ID NO 7, PATLSQTIVPI -SLPD]” had an inhibition at 500 µM of 0%.

Take SKSTTDNDIALLHLA [peptide-(250-263)]: the “Inhibition of APC (%)” value turned out to be 0%.

In turn, “VSRYLDWIHGHIRDK-NH2 [peptide-(396-410), VSRYLDWIHGHIRDK]” yielded an inhibition at 500 µM of 95%.

With “QETLVTGWGYHSSRE-NH2 [peptide-(293-307), QETLVTGWGYHSSRE]”, the inhibition at 500 µM was 0%.

As for “EVMSNMVSENMLSAG-NH2 [peptide-(333-347), EVMSNMVSENML -SAG]”, the inhibition at 500 µM stood at 0%.

For the substance “MSNMVSENMLCAGI-NH2 [peptide-(335-348), MSNMVSENMLCAGI]”, the inhibition at 500 µM is 0%.

As to “HPSWVLTAAHSMDES-NH2 [peptide-(202-216), HPSWVLTAAH -SMDES]”, at 500 µM the inhibition was 0%.

With “VLNFIKIPVVPHNEC-NH2 [peptide-(317-331), VLNFIKIPVVPHNEC]”, the inhibition at 500 µM is 50%.

In turn, “SKKLLVRLGEYDLRR-NH2 [peptide-(216-230), SKKLLVRLGEYDLRR]” showed an inhibition at 500 µM of 0%.

“GEYDLRRWEKWELDL-NH2 [peptide-(224-238), GEYDLRRWEKWELDL]” came in with an inhibition at 500 µM of 0%.

The assay is the same for the next values; noted with them: final peptide concentration at which 50% inhibition of APC activity was observed.
With “VSRYLDWIHGHIRDK-NH2 [peptide-(396-410), VSRYLDWIHGHIRDK]”, the IC50 (in general, the point on the concentration scale where inhibition reaches its midpoint) was determined as 70 µM.

Substance “VLNFIKIPVVPHNEC-NH2 [peptide-(317-331), VLNFIKIPVVPHNEC]” returned an IC50 of 500 µM.

Staying with this assay, now noted: final peptide concentration at which 90% inhibition of APC activity was observed; read-out: IC90.
In the case of “VSRYLDWIHGHIRDK-NH2 [peptide-(396-410), VSRYLDWIHGHIRDK]”, the 90% effect concentration (IC90) – broadly, the point of the concentration-response curve where the effect stands at 90% – was determined as 300 µM.

For a further assay, the target named is T1, APC. As to the kind of experiment: Activated partial thromboplastin time (APTT) coagulation assay of APC anticoagulant activity. The following applies: APTT assay in the presence of APC. Type of assay: biochemical. The procedure: as §1, with “2c1). Residual total protein S content in the resultant PSDP was less than 0.1% protein S as determined by quantitative immunoblotting, by solid-phase ELISA for total protein S and by electroimmunoassay.” for “2c1).”
For the APTT assay, APC was prepared as described in Example 2c2). The specific anticoagulant activity of APC was determined to be 250 Units/mg. The concentration of the APC used in the assay was initially optimized with respect to the sensitivity of the assay towards APC-induced prolongation of clotting time compared to clotting time without APC.
as §2
Additional assays were performed to compare the specificity of the inhibitory effect of peptide-(390-404) on APC anticoagulant activity. Both APTT and Xa-1-stage assays were performed with peptide-(390-404) and with the same peptide synthesized in the reverse order, peptide-(404-390), at concentrations of the peptides ranging from 0 μM to 40 μM. In APTT assays performed as described above in the presence of NHP, APC was used at a concentration of 2.5 nM. For APTT assays in the presence of PSDP, APC was used at a concentration of 5 nM. […]
Once the optimal concentration of APC was determined, anti-(390-404) was separately admixed ranging in concentration from 0.0 to 240 nM with APC in 200 μl of TBS-BSA and 30 mM CaCl2 at pH 7.4 to form an anti-(390-404)-APC immunoreaction admixture pre-maintenance solution. […]
For “VSRYLDWIHGHIRDK-NH2 [peptide-(396-410), VSRYLDWIHGHIRDK]”, the IC50 was 70 µM and the IC90 stood at 300 µM.

Consider “VLNFIKIPVVPHNEC-NH2 [peptide-(317-331), VLNFIKIPVVPHNEC]”, for which the IC50 was determined as 500 µM.
